Experimental data reported in patent publication US10538580B2, “Anti-equol antibody composition and use therefor” (HEALTHCARE SYSTEMS CO., LTD., priority 2016, dated 2020).

System: anti-equol monoclonal antibody composition
Assay: Evaluating cross-reactivity of anti-equol monoclonal antibody composition
Type: binding, mouse
Details: for Cross-reactivity with S-equol (%): S-equol as 100%; for S-equol concentration calculated from the calibration curve: reacted with the antibody, read from S-equol calibration curve
Description: The cross-reactivity rate can be obtained as follows for example. First, a calibration curve is prepared using S-equol. Compounds including S-equol are prepared with concentrations of 1 μM and 10 μM, and reacted with the antibody at each concentration, and the S-equol concentration is calculated from the calibration curve. For example, if 10 μM of daidzein is added and detected at a concentration of 10 μM based on the calibration curve the cross-reactivity is given as 100%, while if it is detected at a concentration of 1 μM the cross-reactivity is given as 10%, and if it is detected at a concentration of 0.1 μM the cross-reactivity is given as 1%. To investigate the cross-reactivity of the resulting antibody composition, reactivity to 9 kinds of compounds including S-equol (S-equol, daidzein, genistein, glycitein, ellagic acid dihydrate, catechin monohydrate, gallic acid, apigenin and DMA) was investigated. First, a calibration curve was prepared using S-equol. The 9 compounds including S-equol were prepared at concentrations of 1 μM and 10 μM, and reacted with the antibody at each concentration, and cross-reactivity was calculated from the calibration curve.

O=c1cc(-c2ccc(O)cc2)oc2cc(O)cc(O)c12 [Apigenin, apigenin]
Cross-reactivity with S-equol (%) (compound at 1 μM): 0.00%
Cross-reactivity with S-equol (%) (compound at 10 μM): 0.00%
S-equol concentration calculated from the calibration curve (compound prepared at 1 μM): 0.00
S-equol concentration calculated from the calibration curve (compound prepared at 10 μM): 0.00

O=c1c(-c2ccc(O)cc2)coc2cc(O)ccc12 [Daidzein, daidzein]
Cross-reactivity with S-equol (%) (compound at 1 μM): 0.00%
Cross-reactivity with S-equol (%) (compound at 10 μM): 0.00%
S-equol concentration calculated from the calibration curve (compound prepared at 1 μM): 0.00
S-equol concentration calculated from the calibration curve (compound prepared at 10 μM): 0.00

O=c1oc2c(O)c(O)cc3c(=O)oc4c(O)c(O)cc1c4c23 [Ellagic acid dihydrate, ellagic acid dihydrate]
Cross-reactivity with S-equol (%) (compound at 1 μM): 0.00%
Cross-reactivity with S-equol (%) (compound at 10 μM): 0.00%
S-equol concentration calculated from the calibration curve (compound prepared at 1 μM): 0.00
S-equol concentration calculated from the calibration curve (compound prepared at 10 μM): 0.00

O=C(O)c1cc(O)c(O)c(O)c1 [Gallic acid, gallic acid]
Cross-reactivity with S-equol (%) (compound at 1 μM): 0.00%
Cross-reactivity with S-equol (%) (compound at 10 μM): 0.74%
S-equol concentration calculated from the calibration curve (compound prepared at 1 μM): 0.00
S-equol concentration calculated from the calibration curve (compound prepared at 10 μM): 0.08

O=c1c(-c2ccc(O)cc2)coc2cc(O)cc(O)c12 [Genistein, genistein]
Cross-reactivity with S-equol (%) (compound at 1 μM): 0.00%
Cross-reactivity with S-equol (%) (compound at 10 μM): 0.00%
S-equol concentration calculated from the calibration curve (compound prepared at 1 μM): 0.00
S-equol concentration calculated from the calibration curve (compound prepared at 10 μM): 0.00

COc1cc2c(=O)c(-c3ccc(O)cc3)coc2cc1O [Glycitein, glycitein]
Cross-reactivity with S-equol (%) (compound at 1 μM): 0.00%
Cross-reactivity with S-equol (%) (compound at 10 μM): 0.00%
S-equol concentration calculated from the calibration curve (compound prepared at 1 μM): 0.00
S-equol concentration calculated from the calibration curve (compound prepared at 10 μM): 0.00

Oc1ccc([C@@H]2COc3cc(O)ccc3C2)cc1 [R-Equol, R-equol]
Cross-reactivity with S-equol (%) (compound at 1 μM): 89.55%
Cross-reactivity with S-equol (%) (compound at 10 μM): 109.59%
S-equol concentration calculated from the calibration curve (compound prepared at 1 μM): 1.20
S-equol concentration calculated from the calibration curve (compound prepared at 10 μM): 11.88

C[C@@H](C(=O)c1ccc(O)cc1O)c1ccc(O)cc1 [R—O-DMA, R—O-desmethylangolensin]
Cross-reactivity with S-equol (%) (compound at 1 μM): 0.00%
Cross-reactivity with S-equol (%) (compound at 10 μM): 0.00%
S-equol concentration calculated from the calibration curve (compound prepared at 1 μM): 0.00
S-equol concentration calculated from the calibration curve (compound prepared at 10 μM): 0.00

Oc1ccc([C@H]2COc3cc(O)ccc3C2)cc1 [S-Equol, S-equol]
Cross-reactivity with S-equol (%) (compound at 1 μM): 100.00%
Cross-reactivity with S-equol (%) (compound at 10 μM): 100.00%
S-equol concentration calculated from the calibration curve (compound prepared at 1 μM): 1.34
S-equol concentration calculated from the calibration curve (compound prepared at 10 μM): 10.84

(+)-Catechin hydrate
Cross-reactivity with S-equol (%) (compound at 1 μM): 0.00%
Cross-reactivity with S-equol (%) (compound at 10 μM): 0.09%
S-equol concentration calculated from the calibration curve (compound prepared at 1 μM): 0.00
S-equol concentration calculated from the calibration curve (compound prepared at 10 μM): 0.01
